# Earlier results as cited in patent US20070225367A1, “Composition for beneficially influencing Alzheimer's disease and/or for Alzheimer's prophylaxis” (Clariant International Ltd, priority 2006, published 2007).
# Experiments:
# β-amyloid aggregation = β-amyloid aggregation (Homo sapiens, UniProt P05067); details: in vitro
# β-amyloid levels = details: oral administration, APP transgenic mice
# Chain of β-amyloid aggregation (P05067 672-713 limits assumed): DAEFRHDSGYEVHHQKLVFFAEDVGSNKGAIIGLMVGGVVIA
structure (smiles),measurement,setting,value
[Cu] [copper],effect on β-amyloid aggregation,β-amyloid aggregation,inhibitory effect
same,β-amyloid levels,β-amyloid levels,reduced
